ChEMBL document CHEMBL1132330 (J Med Chem, 1999)
pIC50, pKi: −log10 of the molar value.

Experiments:
[1] = system: Substance-K receptor (Mesocricetus auratus); assay: Efficacy towards hamster Tachykinin receptor 2 was determined
[2] = target: T1, Substance-K receptor (Homo sapiens, UniProt P21452); assay: Inhibitory activity against human Tachykinin receptor 2
T1 sequence (P21452 whole entry): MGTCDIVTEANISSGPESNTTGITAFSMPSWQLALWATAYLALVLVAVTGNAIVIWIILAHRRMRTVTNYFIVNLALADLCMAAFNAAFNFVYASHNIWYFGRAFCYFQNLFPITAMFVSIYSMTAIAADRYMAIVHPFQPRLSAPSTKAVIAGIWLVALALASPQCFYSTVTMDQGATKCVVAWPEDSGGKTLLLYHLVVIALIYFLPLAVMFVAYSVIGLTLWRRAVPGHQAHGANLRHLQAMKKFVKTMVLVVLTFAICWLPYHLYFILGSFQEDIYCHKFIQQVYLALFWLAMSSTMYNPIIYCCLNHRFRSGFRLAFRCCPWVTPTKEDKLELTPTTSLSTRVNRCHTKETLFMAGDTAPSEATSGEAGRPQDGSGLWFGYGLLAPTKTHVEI

[3] = target: T1, Substance-K receptor; assay: The compound was tested for competition binding with [3H]NKA against the CHO cells from cloned human Tachykinin receptor 2; format: cell-based

Efficacy [1]	pIC50 [2]	pKi [3]	SMILES
114	–	–	CC(C)CC[C@H](NC(=O)[C@H](CC(C)C)NC(=O)CNC(=O)[C@@H](NC(=O)[C@H](Cc1ccc(F)cc1)NC(=O)[C@@H](NC(=O)[C@@H](N)CC(=O)O)[C@@H](C)O)C(C)C)C(N)=O
97.8	–	–	CC(C)CC[C@H](NC(=O)[C@H](CC(C)C)NC(=O)CNC(=O)[C@@H](NC(=O)[C@H](Cc1ccc(Cl)cc1)NC(=O)[C@@H](NC(=O)[C@@H](N)CC(=O)O)[C@@H](C)O)C(C)C)C(N)=O
–	6.99	7.37	CSCC[C@H](NC(=O)[C@H](CC(C)C)NC(=O)CNC(=O)[C@@H](NC(=O)[C@H](Cc1ccccc1)NC(=O)[C@H](Cc1ccccc1)NC(=O)[C@H](CC(=O)O)NC(=O)[C@H](Cc1c[nH]cn1)NC(=O)[C@H](CCSC)NC(=O)[C@@H](N)CC(=O)O)C(C)C)C(N)=O [NEUROKININ B]
116	–	–	CC(C)CC[C@H](NC(=O)[C@H](CC(C)C)NC(=O)CNC(=O)[C@@H](NC(=O)[C@H](Cc1ccccc1)NC(=O)[C@@H](NC(=O)[C@@H](N)CC(=O)O)[C@@H](C)O)C(C)C)C(N)=O
